Common to all, as to assay type: functional
For test [1], the species on record is Cavia porcellus. Put plainly: The compound was tested for hypotensive activity against guinea pig detrusor (bladder) strip mildly depolarized with 15 mM KCl.
Test [2] relates to Rattus norvegicus. Put plainly: Tested for lowering of blood pressure in spontaneously hypertensive rat model upon oral administration at 5 ug/kg.
Test [3] is filed under the species Cavia porcellus. Put plainly: The compound was tested for hypotensive activity against guinea pig vascular tissue (portal vein) strip mildly depolarized with 15 mM KCl.
For test [4], the species on record is Cavia porcellus. Put plainly: Tested for percent increase of efflux rate constant of 0.233 uM of compound using guinea pig detrusor.

pIC50: −log10 of the molar value.

In turn, `C[C@@]1(C(F)(F)F)CN(c2cccc[n+]2[O-])c2cc(S(=O)(=O)c3ccccc3)ccc2O1` had a pIC50 in test [1] of 9.55.
The compound `O=[N+]([O-])c1ccc2c(c1)N(c1cccc[n+]1[O-])CC(C(F)F)(C(F)F)O2` had a Blood pressure in test [2] of 35 mmHg. For the same compound, the negative-log IC50 (pIC50) in test [3] was 9.22. In test [4], the Increase was 40.5%.
In test [1], `CC1(C)CN(c2cccc[n+]2[O-])c2cc(S(=O)(=O)c3ccccc3)ccc2O1` had a pIC50 of 8.39.
On the same count and under the same terms, the figure for `CC1(C)CN(c2cccc[n+]2[O-])c2cc([N+](=O)[O-])ccc2O1` is 7.13; for `C[C@]1(C(F)(F)F)CN(c2cccc[n+]2[O-])c2cc(S(=O)(=O)c3ccccc3)ccc2O1` it is 9.17; for `CC1(C(F)(F)F)CN(c2cccc[n+]2[O-])c2cc(S(=O)(=O)c3ccccc3)ccc2O1` (racemic) it is 9.27.

(Values after ChEMBL document CHEMBL1150458, “A highly potent series of fluoroalkyl benzoxazine pyridine-N-oxide potassium channel openers” (Bioorg Med Chem Lett, 1993).)
